Source: patent US20110117125A1, “COMPOSITIONS AND METHODS FOR THE DELIVERY OF NUCLEIC ACIDS” (TEKMIRA PHARMACEUTICALS CORPORATION, priority 2008, published 2011)

How the values were obtained:
[1] = ODN 14 compared with ODN 1; cited from earlier work
Factor VII = Factor VII knockdown in mice by FVII siRNA lipid particles; type: in vivo; conditions: 40/10/40/10 aminolipid/DSPC/Chol/PEG-S-DMG, IV, C57BL/6 mice, 24 hours post-injection
Description: Factor VII (FVII), a prominent protein in the coagulation cascade, is synthesized in the liver (hepatocytes) and secreted into the plasma. FVII levels in plasma can be determined by a simple, plate-based colorimetric assay. As such, FVII represents a convenient model for determining siRNA-mediated downregulation of hepatocyte-derived proteins, as well as monitoring plasma concentrations and tissue distribution of the nucleic acid lipid particles and siRNA.
FVII activity was evaluated in FVII siRNA-treated animals at 24 hours after intravenous (bolus) injection in C57BL/6 mice. FVII was measured using a commercially available kit (Biophen FVII Kit™; Aniara Corp., Mason, Ohio), following the manufacturer's instructions at a microplate scale. FVII reduction was determined against untreated control mice, and the results were expressed as % Residual FVII. […]
The MTD for these studies was set as the lowest dose causing >7% decrease in body weight and a>200-fold increase in alanine aminotransferase (ALT), a clinical chemistry marker with good specificity for liver damage in rodents. The ED50 was determined from FVII dose-activity curves.
The ability of various lipid formulations to knockdown Factor VII expression was determined in a liver model using Factor VII siRNA, in order to evaluate the impact of aminolipid linker chemistry. […]

| Compound | immunostimulatory / biological activity [1] | improvement of dose (mg/kg) to achieve 50% Factor VII reduction versus ester linkage (DLinDAP lipid) (Factor VII) | improvement of dose (mg/kg) to achieve 50% Factor VII reduction versus ether linkage (DLinDMA lipid) (Factor VII) |
| --- | --- | --- | --- |
| 5′-AACC GTT GAG GGG CAT-3′ (DNA AACCGTTGAGGGGCAT; DNA, backbone and methylation of C not given here) [ODN 14] | ODN 14 is a 15-mer oligonucleotide and ODN 1 is the same oligonucleotide having a thymidine added onto the 5′ end making ODN 1 into a 16-mer. No difference in biological activity between ODN 14 and ODN 1 has been detected and both exhibit similar immunostimulatory activity (Mui et al., 2001) | – | – |
| 5′-TAACGTTGAGGGGCAT-3 (DNA, backbone and methylation of C not given here) [ODN 1] | ODN 14 is a 15-mer oligonucleotide and ODN 1 is the same oligonucleotide having a thymidine added onto the 5′ end making ODN 1 into a 16-mer. No difference in biological activity between ODN 14 and ODN 1 has been detected and both exhibit similar immunostimulatory activity (Mui et al., 2001) | – | – |
| CCCCC/C=C\C/C=C\CCCCCCCCC1(CCCCCCCC/C=C\C/C=C\CCCCC)OCC(CN(C)C)O1 (stereo not shown) [DLin-K-DMA, 2,2-Dilinoleyl-4-dimethylaminomethyl-[1,3]-dioxolane] | – | approximately 100 -fold | approximately 10 -fold |
